Values of other authors as cited in patent US9783526B2, “Control of hypoxia-inducible gene expression with oligooxopiperazine nonpeptidic helix mimetics” (New York University, priority 2012, dated 2017).

Legend:
experimental animals = details: in vivo
[1] = test system: HIF-1α C-TAD and p300/CBP

SMILES	adverse effects in experimental animals (experimental animals)	inhibition of the interaction between HIF-1α C-TAD and p300/CBP [1]
CN1C(=O)[C@@]23C[C@]4([C@]56C[C@@]78SS[C@@](CO)(C(=O)N7[C@H]5Nc5ccccc56)N(C)C8=O)c5ccccc5N[C@@H]4N2C(=O)[C@]1(CO)SS3 [chaetocin]	induced coagulative necrosis, anemia, and leukocytosis	–
CN1C(=O)[C@]2(Cc3cn([C@]45C[C@@]67SS[C@@](CO)(C(=O)N6[C@H]4Nc4ccccc45)N(C)C7=O)c4ccccc34)SS[C@@]1(CO)C(=O)N2C [chetomin]	induced coagulative necrosis, anemia, and leukocytosis	inhibit the interaction
